Test [1] has as its system Monkey. Briefly: Physical dependence capacity at abstinence suppressant dose; Intermediate. In kind it is functional, organism-based. Particulars: Cercopithecidae.
Test [2] is described as follows: Abstinence suppressant dose of the compound. The format is functional.
The subject of test [3] is Monkey. As to the kind of experiment: Physical dependence capacity at abstinence suppressant dose; Low. The format is functional, organism-based. Particulars: Cercopithecidae.
A short description of test [4]: Abstinence suppressant dose of the compound; range 0.5-12 mg/kg, no suppression. The format is functional.
For test [5], the system named is Monkey. As to the kind of experiment: Physical dependence capacity at abstinence suppressant dose; None. The format is functional, organism-based. Particulars: Cercopithecidae.
Test [6] is described as follows: Abstinence suppressant dose of the compound; range 2-12mg/kg, no suppression. In kind it is functional.
Test [7] is described as follows: Abstinence suppressant dose of the compound; range 2-60 mg/kg, no suppression. In kind it is functional.
Test [8] in a line: Abstinence suppressant dose of the compound; range 2-60 no suppression. The format is functional.
Test [9] in a line: Abstinence suppressant dose of the compound; range 1-16 mg/kg, no suppression. In kind it is functional.
A short description of test [10]: Abstinence suppressant dose of the compound; range 3-30 mg/kg, no suppression. In kind it is functional.
The species entered for test [11] is Mus musculus. As to the kind of experiment: Analgesic activity in mouse. The format is functional.
The subject of test [12] is Monkey. As to the kind of experiment: Physical dependence capacity at abstinence suppressant dose; High. The format is functional, organism-based. As to conditions: Cercopithecidae.
In test [13] the test system is Monkey. Briefly: Physical dependence capacity at abstinence suppressant dose; low. In kind it is functional, organism-based. Particulars: Cercopithecidae.
In test [14] the test system is Monkey. Briefly: Physical dependence capacity at abstinence suppressant dose; Very low. In kind it is functional, organism-based. As to conditions: Cercopithecidae.
For test [15], the system named is Monkey. Briefly: Physical dependence capacity at abstinence suppressant dose; No. The format is functional, organism-based. Particulars: Cercopithecidae.
Test [16] is filed under the species Mus musculus. As to the kind of experiment: The compound was tested for its analgesic activity in mouse; Inactive. The format is functional, organism-based.
Test [17] has as its system Monkey. Briefly: Physical dependence capacity at abstinence suppressant dose; high. In kind it is functional, organism-based. As to conditions: Cercopithecidae.

The source made the active and inactive calls. The calls are words filed in the database; no cut-off is given here.

With `CC[C@]12CCN(C)C(Cc3ccc(O)cc31)C2C` (some centres undefined), the Physical dependence capacity entry in [1] was “Intermediate”. In [2], this compound returned a Dose of 1 mg/kg.

In turn, `CC1C2Cc3ccc(O)cc3[C@]1(C)CCN2C` (some centres undefined) came in with a Dose in test [2] of over 18 mg/kg. For the same compound, the Physical dependence capacity entry in [3] is “Low”.

Turning to `CCC1C2Cc3ccc(O)cc3[C@]1(CC)CCN2C` (some centres undefined), the Dose in test [4] was 0.5 mg/kg. The Physical dependence capacity result in [5] was “inactive”.

Regarding `CC[C@H]1C2Cc3ccc(O)cc3[C@]1(C)CCN2C`, the Dose in test [6] turned out to be 2 mg/kg. The Physical dependence capacity result in test [5] is “inactive”.

As for `CN1CC[C@]2(C)CC1Cc1ccc(O)cc12` [listing 1 of 2 here], the Dose in [7] amounted to 2 mg/kg.

Take `CC[C@]12CCN(C)C(Cc3ccc(O)cc31)[C@@H]2C`: the Dose in test [2] was over 40 mg/kg. Moreover, the Physical dependence capacity entry in test [3] is on record as “Low”.

In the case of `C[C@H]1C2Cc3ccc(O)cc3[C@]1(C)CCN2C` [listing 1 of 2 here], the Dose in test [2] came to 24 mg/kg.

For `CC[C@H]1C2Cc3ccc(O)cc3[C@]1(CC)CCN2C` [listing 1 of 2 here], the Dose in [8] was 2 mg/kg.

`CC[C@]12CCN(C)C(Cc3ccc(O)cc31)C2` [listing 1 of 2 here] registered a Dose in test [9] of 1 mg/kg.

In the case of `CCC[C@]12CCN(C)C(Cc3ccc(O)cc31)C2`, the Dose in [10] is 3 mg/kg. The Physical dependence capacity result in test [5] was “inactive”.

Turning to `CC[C@H]1C2Cc3ccc(O)cc3[C@]1(CC)CCN2C` [listing 2 of 2 here], in [5], the Physical dependence capacity entry was “inactive”.

Take `CC[C@]12CCN(C)C(Cc3ccc(O)cc31)C2` [listing 2 of 2 here]: the Physical dependence capacity result in [3] is on record as “Low”.

Turning to `CN1CC[C@]2(C)CC1Cc1ccc(O)cc12` [listing 2 of 2 here], the Physical dependence capacity entry in test [5] is “inactive”.

On to `C[C@H]1C2Cc3ccc(O)cc3[C@]1(C)CCN2C` [listing 2 of 2 here], for which, in [3], the Physical dependence capacity result is reported as “Low”.

Consider `CN1CC[C@]2(C)CC1Cc1ccc(O)cc12` (single isomer, unassigned; (+)) [listing 1 of 2 here], for which the ED50 in test [11] was 22.9 mg/kg.

For the compound `CC[C@H]1C2Cc3ccc(O)cc3[C@]1(CC)CCN2C` (single isomer, unassigned; (+)) [listing 1 of 2 here], the ED50 in test [11] was 7.5 mg/kg.

In turn, `CC[C@]12CCN(C)C(Cc3ccc(O)cc31)C2` (single isomer, unassigned; (+)) [listing 1 of 2 here] returned an ED50 in test [11] of 21.8 mg/kg.

In the case of `CCC[C@]12CCN(C)C(Cc3ccc(O)cc31)[C@@H]2C` (single isomer, unassigned; (+)) [listing 1 of 2 here], the ED50 in test [11] turned out to be 12.3 mg/kg.

Consider `CCC[C@]12CCN(C)C(Cc3ccc(O)cc31)[C@@H]2C` (single isomer, unassigned; (+)) [listing 2 of 2 here], for which, in test [12], the Physical dependence capacity entry is “High”.

As for `CC[C@H]1C2Cc3ccc(O)cc3[C@]1(CC)CCN2C` (single isomer, unassigned; (+)) [listing 2 of 2 here], the Physical dependence capacity result in test [1] was “Intermediate”.

`CC[C@]12CCN(C)C(Cc3ccc(O)cc31)C2` (single isomer, unassigned; (+)) [listing 2 of 2 here]: the Physical dependence capacity result in [13] is recorded as “Low”.

Turning to `CN1CC[C@]2(C)CC1Cc1ccc(O)cc12` (single isomer, unassigned; (+)) [listing 2 of 2 here], the Physical dependence capacity entry in test [14] is recorded as “Very low”.

In the case of `C[C@H]1C2Cc3ccc(O)cc3[C@]1(C)CCN2C` (single isomer, unassigned; (+)), in test [15], the Physical dependence capacity entry is “No dependance”. Besides, in test [16], the ED50 result was “inactive”.

Regarding `CN1CC[C@]2(C)CC1Cc1ccc(O)cc12` (single isomer, unassigned; (-)) [listing 1 of 2 here], the median effective dose (ED50) in test [11] is 1.8 mg/kg.

As to `C[C@H]1C2Cc3ccc(O)cc3[C@]1(C)CCN2C` (single isomer, unassigned; (-)) [listing 1 of 2 here], the 50% effective dose (ED50) in test [11] (Mus musculus, read-out: ED50) stood at 0.6 mg/kg.

Compound `CC[C@H]1C2Cc3ccc(O)cc3[C@]1(CC)CCN2C` (single isomer, unassigned; (-)) [listing 1 of 2 here] registered an ED50 in [11] of 1.2 mg/kg.

On to `CC[C@]12CCN(C)C(Cc3ccc(O)cc31)C2` (single isomer, unassigned; (-)) [listing 1 of 2 here], for which the median effective dose (ED50) in test [11] amounted to 0.6 mg/kg.

For the compound `CCC[C@]12CCN(C)C(Cc3ccc(O)cc31)[C@@H]2C` (single isomer, unassigned; (-)) [listing 1 of 2 here], the ED50 in [11] was found to be 0.8 mg/kg.

As for `CCC[C@]12CCN(C)C(Cc3ccc(O)cc31)[C@@H]2C` (single isomer, unassigned; (-)) [listing 2 of 2 here], the Physical dependence capacity entry in [15] is “No dependance”.

Take `CC[C@H]1C2Cc3ccc(O)cc3[C@]1(CC)CCN2C` (single isomer, unassigned; (-)) [listing 2 of 2 here]: the Physical dependence capacity result in test [15] was “No dependance”.

Consider `CC[C@]12CCN(C)C(Cc3ccc(O)cc31)C2` (single isomer, unassigned; (-)) [listing 2 of 2 here], for which, in test [15], the Physical dependence capacity result is “No dependance”.

With `CN1CC[C@]2(C)CC1Cc1ccc(O)cc12` (single isomer, unassigned; (-)) [listing 2 of 2 here], in test [3], the Physical dependence capacity result is listed as “Low”.

Take `C[C@H]1C2Cc3ccc(O)cc3[C@]1(C)CCN2C` (single isomer, unassigned; (-)) [listing 2 of 2 here]: the Physical dependence capacity entry in [15] was “No dependance”.

On to `COc1ccc2c3c1O[C@H]1[C@@H](O)C=C[C@H]4[C@@H](C2)N(C)CC[C@@]341` [CODEINE], for which the ED50 in [11] (Mus musculus, read-out: ED50) is 7.5 mg/kg. Also, in test [1], the Physical dependence capacity entry was “Partially active”.

As to `CN1CC[C@]23c4c5ccc(O)c4O[C@H]2[C@@H](O)C=C[C@H]3[C@H]1C5` [MORPHINE], the ED50 in [11] (Mus musculus, read-out: ED50) came to 1.2 mg/kg. The Physical dependence capacity result in [17] is “Active”.

By ED50 is commonly meant the midpoint of the dose-response relation.

The values are drawn from ChEMBL document CHEMBL1121574, “Third Smissman Award address: reminiscences and musings of a classical medicinal chemist” (J Med Chem, 1980).
